Experimental data published in PubChem BioAssay (NCI).
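Briefly, cells in 96-well plates were exposed to five compound concentrations for 48 h, and endpoints were estimated by linear interpolation. TGI is the concentration that stops growth completely.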

Tests used:
Test in all cases: DTP human tumour cell line panel, 48 h
[1] = test system: ACHN renal
[2] = test system: EKVX NSCLC
[3] = test system: SK-MEL-5 melanoma
[4] = test system: PC-3 prostate
[5] = test system: M14 melanoma
[6] = test system: HS 578T breast
[7] = test system: SK-OV-3 ovarian
[8] = test system: NCI/ADR-RES ovarian
[9] = test system: K-562 leukemia
[10] = test system: SF-268 CNS
[11] = test system: HCT-15 colon
[12] = test system: NCI-H522 lung
[13] = test system: SN12C renal
[14] = test system: MALME-3M melanoma
[15] = test system: UO-31 renal
[16] = test system: HCT-116 colon
[17] = test system: CAKI-1 renal
[18] = test system: SK-MEL-28 melanoma
[19] = test system: LOX IMVI melanoma
[20] = test system: HOP-62 NSCLC
[21] = test system: DU-145 prostate
[22] = test system: BT-549 breast
[23] = test system: OVCAR-8 ovarian
[24] = test system: SR leukemia
[25] = test system: KM12 colon
[26] = test system: MDA-MB-435
[27] = test system: U251 CNS
[28] = test system: MDA-N
[29] = test system: SW-620 colon
[30] = test system: HCC-2998 colon
[31] = test system: RXF 393 renal
[32] = test system: UACC-257 melanoma
[33] = test system: HL-60(TB) leukemia
[34] = test system: OVCAR-3 ovarian
[35] = test system: T-47D breast
[36] = test system: OVCAR-5 ovarian
[37] = test system: UACC-62 melanoma
[38] = test system: HT29 colon
[39] = test system: 786-0 renal
[40] = test system: MDA-MB-231 breast
[41] = test system: A549 NSCLC
[42] = test system: TK-10 renal
[43] = test system: CCRF-CEM leukemia
[44] = test system: COLO 205 colon
[45] = test system: NCI-H460 lung
[46] = test system: SF-295 CNS
[47] = test system: OVCAR-4 ovarian
[48] = test system: NCI-H226 lung
[49] = test system: SNB-19 CNS
[50] = test system: A498 renal
[51] = test system: HOP-92 NSCLC
[52] = test system: SK-MEL-2 melanoma
[53] = test system: NCI-H23 lung
[54] = test system: MOLT-4 leukemia
[55] = test system: MCF7 breast

Measured: TGI

COc1cc(/C=C2\C(=O)N(Cc3ccccc3)C(c3ccccc3)S2(=O)=O)cc(OC)c1OC (stereo not given)
14.7 µM: [54]
44.9 µM: [33]
65.5 µM: [24]
51.8 µM: [3]
94 µM: [44]
> 100 µM: all other assays above
